One data set has as its system onychomycosis. The note with it: continuous therapy (ingestion); cited from earlier work.
The conditions of data set [1]: cited from earlier work.
The next data set relates to Onychomycosis fungi. In words: Addition of undecylenic acid or hydroquinone to cyanoacrylate ester on infected nails. Type of data set: in vivo. The note with it: for effect on yellow color of infected nails: added to cyanoacrylate ester.

Where two headings read alike, the source gives them in different places.

For the molecule `CN(C/C=C/C#CC(C)(C)C)Cc1cccc2ccccc12` [Lamisil, terbinafine], in the data set with onychomycosis, the “Cure of all nails (share of subjects)” value is on record as 25%, the complete cure is 41% and the mycological cure is recorded as 71%.
2-ETHYL CYANO ACRYLATE: the “Soluble In” value in data set [1] (Cured State) was “Pacer X-8 Debonder, Acetone,”; in data set [1] (Liquid State), “Acetone, MEK, Nitromethane”.
Regarding `Oc1ccc(O)cc1` [hydroquine], the “effect on yellow color of infected nails” value in the data set with Onychomycosis fungi is listed as “remove the yellow-color of infected nails”.
Turning to `C=CCCCCCCCCC(=O)O` [undecylenic acid], the “effect on yellow color of infected nails” value in the data set on Onychomycosis fungi was “remove the yellow-color of infected nails”. The “effect on spread of infection” value in the data set with Onychomycosis fungi (addition of 1-12%, preferably 2-10%) is “inhibit the spread of infection”.

The values are drawn from US20090036531A1, “Method for treatment of onychomycosis” (priority 2005, published 2009).
